The target of the test is human PCSK9 (Homo sapiens, UniProt Q8NBP7). Nature of the test: PCSK9 ligand binding TR-FRET assay (interference with binding of human PCSK9 to human LDLR). Particulars: for Max % inhibition: PCSK9 FRET assay, efficacy (Amax), 100% = 1 uM unlabeled human PCSK9, 0% = DMSO; for IC50: TR-FRET, human PCSK9 Alexa Fluor 647 / human LDLR extracellular domain-Europium Kryptate, read-out: PCSK9 FRET Assay IC50. The procedure, abridged: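 Threefold compound dilutions were pre-incubated 30 min with PCSK9, after which 4 nM Europium Kryptate-tagged human LDLR ectodomain was added for a further 2 h.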
On the technique in general: In TR-FRET formats the signal depends on donor and acceptor labels being close together.

Chain of human PCSK9 (Q8NBP7 153-692): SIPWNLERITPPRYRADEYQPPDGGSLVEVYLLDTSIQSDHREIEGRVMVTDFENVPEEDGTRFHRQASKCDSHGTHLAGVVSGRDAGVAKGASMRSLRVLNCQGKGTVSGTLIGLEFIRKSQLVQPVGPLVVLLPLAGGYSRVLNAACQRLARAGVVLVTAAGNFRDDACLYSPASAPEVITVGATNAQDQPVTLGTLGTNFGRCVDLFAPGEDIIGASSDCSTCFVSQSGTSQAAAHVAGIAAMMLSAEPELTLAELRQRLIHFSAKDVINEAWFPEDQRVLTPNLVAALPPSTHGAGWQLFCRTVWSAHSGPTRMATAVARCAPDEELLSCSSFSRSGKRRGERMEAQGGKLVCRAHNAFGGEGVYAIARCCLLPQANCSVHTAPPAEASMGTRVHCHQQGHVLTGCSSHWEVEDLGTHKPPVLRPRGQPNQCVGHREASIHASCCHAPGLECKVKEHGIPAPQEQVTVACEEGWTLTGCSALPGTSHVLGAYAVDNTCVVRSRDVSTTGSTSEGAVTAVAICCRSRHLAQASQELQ
Chain of human PCSK9 (Q8NBP7 31-152 partner limits assumed): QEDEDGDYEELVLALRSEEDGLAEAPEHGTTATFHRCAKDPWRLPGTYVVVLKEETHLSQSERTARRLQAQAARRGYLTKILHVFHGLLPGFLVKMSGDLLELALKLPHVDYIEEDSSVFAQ

In general, IC50 refers to the concentration that inhibits the measured activity by half. Turning to `COC[C@@H]1NC(=O)[C@H](C)N(Cc2ccc(Cl)cc2Oc2ccc(-c3cnc(CN4CCCC4)n3C)c(F)c2)C(=O)C[C@@H](Cc2ccccc2)C(=O)N(C)[C@@H](C)CNC(=O)C[C@H](Cc2ccc(Cl)cc2)N(C)C1=O` [Compound 72, (2S,5S,8S,13S,16R)-16-benzyl-1-(4-chloro-2-(3-fluoro-4-(1-methyl-2-(pyrrolidin-1-ylmethyl)-1H-imidazol-5-yl)phenoxy)benzyl)-8-(4-chlorobenzyl)-5-(methoxymethyl)-2,7,13,14-tetramethyl-1,4,7,11,14-pentaazacyclooctadecane-3,6,10,15,18-pentaone], the Max % inhibition was 92.57% and the IC50 amounted to 0.5 nM.

Turning to `COC[C@@H]1NC(=O)[C@@H](C)N(Cc2ccc(C(F)F)cc2Oc2ccc(-c3cnc(CN(C)C)n3C)cc2)C(=O)C[C@@H](Cc2ccccc2)C(=O)N(C)[C@@H](C)CNC(=O)C[C@H](Cc2ccc(Cl)cc2)N(C)C1=O` [Compound 74, (2R,5S,8S,13S,16R)-16-benzyl-8-(4-chlorobenzyl)-1-(4-(difluoromethyl)-2-(4-(2-((dimethylamino)methyl)-1-methyl-1H-imidazol-5-yl)phenoxy)benzyl)-5-(methoxymethyl)-2,7,13,14-tetramethyl-1,4,7,11,14-pentaazacyclooctadecane-3,6,10,15,18-pentaone], the Max % inhibition is 104.33% and the IC50 is 46.5 nM.

Take `CCC[C@@H](O)[C@@H]1CC(=O)N(Cc2ccc(Cl)cc2Oc2ccc(-c3cnc(CN(C)C)n3C)cc2)[C@@H](C)C(=O)N[C@@H](COC)C(=O)N(C)[C@@H](Cc2ccc(Cl)cc2)CC(=O)NC[C@H](C)N(C)C1=O` [Compound 75, (2S,5S,8S,13S,16S)-1-(4-chloro-2-(4-(2-((dimethylamino)methyl)-1-methyl-1H-imidazol-5-yl)phenoxy)benzyl)-8-(4-chlorobenzyl)-16-((R)-1-hydroxybutyl)-5-(methoxymethyl)-2,7,13,14-tetramethyl-1,4,7,11,14-pentaazacyclooctadecane-3,6,10,15,18-pentaone]: the Max % inhibition came out at 103.69% and the IC50 worked out at 4 nM.

`COC[C@@H]1NC(=O)[C@H](C)N(Cc2ccc(Cl)cc2Oc2ccc(-c3cnc(CN4CCC4)n3C)cc2)C(=O)C[C@@H](Cc2ccccc2)C(=O)N(C)[C@@H](C)CNC(=O)C[C@H](Cc2ccc(Cl)cc2)N(C)C1=O` [Compound 76, (2S,5S,8S,13S,16R)-1-(2-(4-(2-(azetidin-1-ylmethyl)-1-methyl-1H-imidazol-5-yl)phenoxy)-4-chlorobenzyl)-16-benzyl-8-(4-chlorobenzyl)-5-(methoxymethyl)-2,7,13,14-tetramethyl-1,4,7,11,14-pentaazacyclooctadecane-3,6,10,15,18-pentaone]: the Max % inhibition was 96.97% and the IC50 amounted to 1 nM.

With `COC[C@@H]1NC(=O)[C@H](C)N(Cc2ccc(Cl)cc2Oc2ccc(-c3cnc(CN(C)C)n3C)cc2)C(=O)C[C@@H](Cc2ccccc2)C(=O)N(C)[C@@H]2C[C@@H]2NC(=O)C[C@H](Cc2ccc(Cl)cc2)N(C)C1=O` [Compound 77, (1S,5S,8S,11S,15R,18R)-15-benzyl-12-(4-chloro-2-(4-(2-((dimethylamino)methyl)-1-methyl-1H-imidazol-5-yl)phenoxy)benzyl)-5-(4-chlorobenzyl)-8-(methoxymethyl)-6,11,17-trimethyl-2,6,9,12,17-pentaazabicyclo[16.1.0]nonadecane-3,7,10,13,16-pentaone], the Max % inhibition was found to be 104.08% and the IC50 is 9 nM.

`COC[C@@H]1NC(=O)[C@H](COC)N(Cc2ccc(Cl)cc2Oc2ccc(-c3cnc(CN(C)C)n3C)cc2)C(=O)C[C@@H](Cc2ccccc2)C(=O)N(C)[C@@H](C)CNC(=O)C[C@H](Cc2ccc(Cl)cc2)N(C)C1=O` [Compound 78, (2S,5S,8S,13S,16R)-16-benzyl-1-(4-chloro-2-(4-(2-((dimethylamino)methyl)-1-methyl-1H-imidazol-5-yl)phenoxy)benzyl)-8-(4-chlorobenzyl)-2,5-bis(methoxymethyl)-7,13,14-trimethyl-1,4,7,11,14-pentaazacyclooctadecane-3,6,10,15,18-pentaone]: the Max % inhibition amounted to 97.49% and the IC50 turned out to be 94.6 nM.

For the molecule `C[C@H]1C(=O)N[C@@H](COC(F)F)C(=O)N(C)[C@@H](Cc2ccc(Cl)cc2)CC(=O)N[C@H]2CCCC[C@@H]2N(C)C(=O)[C@H](Cc2ccccc2)CC(=O)N1Cc1ccc(Cl)cc1Oc1ccc(-c2cnc(CN(C)C)n2C)cc1` [Compound 79, (4S,7S,10S,14R,16aS,20aS)-14-benzyl-11-(4-chloro-2-(4-(2-((dimethylamino)methyl)-1-methyl-1H-imidazol-5-yl)phenoxy)benzyl)-4-(4-chlorobenzyl)-7-((difluoromethoxy)methyl)-5,10,16-trimethylhexadecahydrobenzo[l][1,4,7,11,14]pentaazacyclooctadecine-2,6,9,12,15(3H)-pentaone], the Max % inhibition is recorded as 103.04% and the IC50 came out at 1.8 nM.

`COC[C@@H]1NC(=O)[C@H](C)N(Cc2ccc(C(F)(F)F)cc2Oc2ccc(-c3cnc(CN4CCCC4)n3C)cc2)C(=O)C[C@@H](Cc2ccccc2)C(=O)N(C)[C@@H](C)CNC(=O)C[C@H](Cc2ccc(Cl)cc2)N(C)C1=O` [Compound 80, (2S,5S,8S,13S,16R)-16-benzyl-8-(4-chlorobenzyl)-5-(methoxymethyl)-2,7,13,14-tetramethyl-1-(2-(4-(1-methyl-2-(pyrrolidin-1-ylmethyl)-1H-imidazol-5-yl)phenoxy)-4-(trifluoromethyl)benzyl)-1,4,7,11,14-pentaazacyclooctadecane-3,6,10,15,18-pentaone]: the Max % inhibition is given as 103.62% and the IC50 is 6.3 nM.

For `CCC/C=C/c1ncc(-c2ccc(Oc3cc(Cl)ccc3CN3C(=O)C[C@@H](Cc4ccccc4)C(=O)N(C)[C@@H](C)CNC(=O)C[C@H](Cc4ccc(Cl)cc4)N(C)C(=O)[C@H](COC)NC(=O)[C@@H]3C)cc2)n1C` [Compound 81, (2S,5S,8S,13S,16R)-16-benzyl-1-(4-chloro-2-(4-(1-methyl-2-((E)-pent-1-en-1-yl)-1H-imidazol-5-yl)phenoxy)benzyl)-8-(4-chlorobenzyl)-5-(methoxymethyl)-2,7,13,14-tetramethyl-1,4,7,11,14-pentaazacyclooctadecane-3,6,10,15,18-pentaone], the Max % inhibition turned out to be 87.86% and the IC50 is 34.5 nM.

`COC[C@@H]1NC(=O)[C@H](CC(=O)O)N(Cc2ccc(Cl)cc2Oc2ccc(-c3cnc(CN(C)C)n3C)cc2)C(=O)C[C@@H](Cc2ccccc2)C(=O)N(C)[C@@H](C)CNC(=O)C[C@H](Cc2ccc(Cl)cc2)N(C)C1=O` [Compound 82, 2-((2S,5S,8S,13S,16R)-16-benzyl-1-(4-chloro-2-(4-(2-((dimethylamino)methyl)-1-methyl-1H-imidazol-5-yl)phenoxy)benzyl)-8-(4-chlorobenzyl)-5-(methoxymethyl)-7,13,14-trimethyl-3,6,10,15,18-pentaoxo-1,4,7,11,14-pentaazacyclooctadecan-2-yl)acetic acid]: the Max % inhibition worked out at 99.99% and the IC50 was found to be 1.3 nM.

In the case of `COC[C@@H]1NC(=O)[C@H](C)N(Cc2ccc(Cl)cc2Oc2ccc(-c3cnc(CN4CCCC4)n3C)cc2)C(=O)C[C@@H](Cc2ccccc2)C(=O)N(C)[C@@H](CCF)CNC(=O)C[C@H](Cc2ccc(Cl)cc2)N(C)C1=O` [Compound 83, (2S,5S,8S,13S,16R)-16-benzyl-1-(4-chloro-2-(4-(1-methyl-2-(pyrrolidin-1-ylmethyl)-1H-imidazol-5-yl)phenoxy)benzyl)-8-(4-chlorobenzyl)-13-(2-fluoroethyl)-5-(methoxymethyl)-2,7,14-trimethyl-1,4,7,11,14-pentaazacyclooctadecane-3,6,10,15,18-pentaone], the Max % inhibition is 99.18% and the IC50 amounted to 1.7 nM.

For `CCc1ccc(CN2C(=O)C[C@@H](Cc3ccccc3)C(=O)N(C)[C@H]3CCCC[C@@H]3NC(=O)C[C@H](Cc3ccc(Cl)cc3)N(C)C(=O)[C@H](COC)NC(=O)[C@@H]2C)c(Oc2ccc(-c3cnc([C@@H](C)N(C)C)n3C)cc2)c1` [Compound 85, (4S,7S,10S,14R,16aS,20aS)-14-benzyl-4-(4-chlorobenzyl)-11-(2-(4-(2-((R)-1-(dimethylamino)ethyl)-1-methyl-1H-imidazol-5-yl)phenoxy)-4-ethylbenzyl)-7-(methoxymethyl)-5,10,16-trimethylhexadecahydrobenzo[l][1,4,7,11,14]pentaazacyclooctadecine-2,6,9,12,15(3H)-pentaone], the Max % inhibition was 114.68% and the IC50 was found to be 0.9 nM.

As to `CNc1ncc(-c2ccc(Oc3cc(Cl)ccc3CN3C(=O)C[C@@H](Cc4ccccc4)C(=O)N(C)[C@@H](C)CNC(=O)C[C@H](Cc4ccc(Cl)cc4)N(C)C(=O)[C@H](COC)NC(=O)[C@@H]3C)cc2)cn1` [Compound 86, (2S,5S,8S,13S,16R)-16-benzyl-1-(4-chloro-2-(4-(2-(methylamino)pyrimidin-5-yl)phenoxy)benzyl)-8-(4-chlorobenzyl)-5-(methoxymethyl)-2,7,13,14-tetramethyl-1,4,7,11,14-pentaazacyclooctadecane-3,6,10,15,18-pentaone], the Max % inhibition is recorded as 56.62% and the IC50 amounted to 20.5 nM.

For `COC[C@@H]1NC(=O)[C@H](CCO)N(Cc2ccc(Cl)cc2Oc2ccc(-c3cnc(CN(C)C)n3C)cc2)C(=O)C[C@@H](Cc2ccccc2)C(=O)N(C)[C@@H](C)CNC(=O)C[C@H](Cc2ccc(Cl)cc2)N(C)C1=O` [Compound 87, (2S,5S,8S,13S,16R)-16-benzyl-1-(4-chloro-2-(4-(2-((dimethylamino)methyl)-1-methyl-1H-imidazol-5-yl)phenoxy)benzyl)-8-(4-chlorobenzyl)-2-(2-hydroxyethyl)-5-(methoxymethyl)-7,13,14-trimethyl-1,4,7,11,14-pentaazacyclooctadecane-3,6,10,15,18-pentaone], the Max % inhibition stood at 87.74% and the IC50 was found to be 497 nM.

The values are drawn from patent publication US20230089867A1, “CYCLIC PENTAMER COMPOUNDS AS PROPROTEIN CONVERTASE SUBTILISIN/KEXIN TYPE 9 (PCSK9) INHIBITORS FOR THE TREATMENT OF METABOLIC DISORDER” (Novartis AG, priority 2018, published 2023).
